Reference: publication PMC8113459, “Selective inhibition of cullin 3 neddylation through covalent targeting DCN1 protects mice from acetaminophen-induced liver toxicity” (Nature Communications, 2021)
Where “and” joins values, the source holds several entries; their conditions need not be identical. Equal values may be shown once.

What was measured:
DCN1 [1] = biological target: T1, DCN1 (Homo sapiens, UniProt Q96GG9); experiment: Intact-protein mass spectrometric analysis, Method B (DCN1); assay type: binding; conditions: 3 h incubation, 100 nM protein
Experimental: Method B: Recombinant DCN1 or DCN3 protein (100 nM in 25 mM Tris 7.5, 200 mM NaCl, 1 mM DTT buffer) was incubated with 1.2-fold excess of the DCN1 inhibitors at 37 °C for 10 min, 1 h, or 3 h. Following incubation, the protein was analyzed by LC–MS (Agilent Q-TOF 6545) under the following conditions: fragmentor voltage, 300 V; skimmer voltage, 75 V; nozzle voltage, 100 V; sheath gas temperature, 350 °C; and drying gas temperature, 325 °C. MassHunter Qualitative Analysis software (Agilent) was used to analyze the data. Intact protein masses were obtained using the maximum entropy deconvolution algorithm. The mass spectrometry data in Supplementary Figs. 14–17 were generated by Method B.

DCN1 [2] = biological target: T1, DCN1; experiment: Competitive FP binding assay
Experimental: Competitive FP binding assay was performed as previously described. The IC50 and Ki values of DI-1548 and DI-1548DD were determined in competitive binding experiments. Mixtures of preincubated protein/probe complex solution in the assay buffer (196 μL) and compounds in DMSO (4 μL) were added into assay plates which were incubated at room temperature for 30 min with gentle shaking. The concentrations of DCN1 protein and fluorescent probe were 50 and 5 nM, respectively. […] FP values in millipolarization units were measured using the Infinite M-1000 plate reader (Tecan U.S., Research Triangle Park, NC) in Microfluor 1 96-well, black, round-bottom plates (Thermo Fisher Scientific, Waltham, MA) at an excitation wavelength of 485 nm and an emission wavelength of 530 nm. IC50 values were determined by nonlinear regression fitting of the competition curves using the dose–response inhibition equation (four parameters, variable slopes) included in the Prism/GraphPad software. Ki values were calculated using methods described previously.

neddylation of cullin 3 = experiment: Western blot, cullin 3 neddylation in cells of different tissue types (U2OS, THLE2, MDA-MB-231, KYSE70, HCT116); assay type: cell-based, human
Experimental: (§1) Western blotting was performed as described previously. Treated cells were lysed by RIPA buffer supplemented with protease inhibitor. The expression level of indicated proteins was examined by immunoblotting analysis and GAPDH was used as the loading control. Antibodies were purchased commercially: cullin 1 (sc-17775, 1:500 dilution) and cullin 2 (sc-166506, 1:500 dilution) from Santa Cruz Biotech (Santa Cruz, CA); cullin 4A (PA5-14542, 1:1000 dilution), cullin 4B (PA5-50647, 1:1000 dilution), and DCN3 (DCUN1D3, PA5-44000, 1:1000 dilution) from Thermo Fisher Scientific (Wayne, MI); cullin 3 (2759, 1:1000), NRF2 (12721, 1:1000 dilution), HO-1 (70081, 1:1000 dilution), and Bim (2819, 1:1000 dilution) from Cell Signaling Technology (Boston, MA); DCN1 (GWB-E3D700, 1:1000 dilution) from GenWay Biotech (San Diego, CA); and cullin 5 (A302-173A, 1:500 dilution) from Bethyl Labs (Montgomery, TX). Results are representative of two independent experiments.

NRF2 protein = experiment: Western blot, NRF2 protein accumulation in cells; assay type: cell-based, human; conditions: 300 nM
Experimental: as §1

[3] = Cell viability assay (WST-8), U2OS; assay type: cell-based, human; conditions: human, U2OS cells, replicates, read-out: cell viability relative to control
Experimental: (§2) Cell viability assay was performed as previously described. The effect of DCN1 inhibitors on cell growth was evaluated by a WST-8 [2-(2-methoxy-4-nitrophenyl)-3-(4-nitrophenyl)-5-(2,4-disulfophenyl)-2H-tetrazolium, monosodium salt assay (Dojindo Molecular Technologies, Inc). Cells (2000–3000 cells in each well) were seeded in 96-well tissue culture plates in medium (100 μL) and treated with serial dilution of DCN1 inhibitors for 3 days. At the end of incubation, WST-8 dye (20 μL) was added to each well and incubated for 1–3 h, then the absorbance was measured in a microplate reader (Molecular Devices) at 450 nm. Cell growth inhibition was evaluated as the ratio of the absorbance of the sample to that of the control. The values were inserted into Prism software, and the curves and the EC50 values were produced by Prism software.

U2OS cells = experiment: Cell viability assay (WST-8), U2OS; assay type: cell-based, human; conditions: replicates
Experimental: as §2

[4] = Cell viability assay (WST-8), MDA-MB-231; assay type: cell-based, human; conditions: human, MDA-MB-231 cells, replicates, read-out: cell viability relative to control
Experimental: as §2

MDA-MB-231 cells = experiment: Cell viability assay (WST-8), MDA-MB-231; assay type: cell-based, human; conditions: for cell viability relative to control: replicates
Experimental: as §2

[5] = Cell viability assay (WST-8), HCT116; assay type: cell-based, human; conditions: human, HCT116 cells, replicates, read-out: cell viability relative to control
Experimental: as §2

HCT116 cells = experiment: Cell viability assay (WST-8), HCT116; assay type: cell-based, human; conditions: for cell viability relative to control: replicates
Experimental: as §2

[6] = Cell viability assay (WST-8), KYSE70; assay type: cell-based, human; conditions: human, KYSE70 cells, replicates, read-out: cell viability relative to control
Experimental: as §2

KYSE70 cells = experiment: Cell viability assay (WST-8), KYSE70; assay type: cell-based, human; conditions: for cell viability relative to control: replicates
Experimental: as §2

T1 sequence (Q96GG9 whole entry, the tested form may be a part): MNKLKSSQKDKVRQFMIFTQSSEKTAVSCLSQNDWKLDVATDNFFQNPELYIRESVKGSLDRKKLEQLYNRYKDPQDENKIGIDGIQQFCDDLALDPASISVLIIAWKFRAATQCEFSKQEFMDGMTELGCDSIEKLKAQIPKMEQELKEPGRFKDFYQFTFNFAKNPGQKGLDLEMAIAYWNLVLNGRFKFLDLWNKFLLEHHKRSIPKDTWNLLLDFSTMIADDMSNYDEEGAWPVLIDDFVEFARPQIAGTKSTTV

covalent complex formation with DCN1 (DCN1 [1]): fails to form any detectable complex
times less potent than DI-1548 in binding to DCN1 (DCN1 [2]): > 1000 times
FP signal of the competitive binding curve (DCN1 [2]; Concentration (nM) 0.169351, duplicates): 48.4 and 48
FP signal of the competitive binding curve (DCN1 [2]; Concentration (nM) 0.508053, duplicates): 47 and 44.7
FP signal of the competitive binding curve (DCN1 [2]; Concentration (nM) 1.52416, duplicates): 42.8 and 45.5
FP signal of the competitive binding curve (DCN1 [2]; Concentration (nM) 4.57247, duplicates): 46.4 and 45.6
FP signal of the competitive binding curve (DCN1 [2]; Concentration (nM) 13.7174, duplicates): 45.7
FP signal of the competitive binding curve (DCN1 [2]; Concentration (nM) 41.1523, duplicates): 43.9 and 44.9
FP signal of the competitive binding curve (DCN1 [2]; Concentration (nM) 123.457, duplicates): 43.5 and 44.2
FP signal of the competitive binding curve (DCN1 [2]; Concentration (nM) 370.37, duplicates): 42.9 and 41.1
FP signal of the competitive binding curve (DCN1 [2]; Concentration (nM) 1111.11, duplicates): 36.2 and 35.7
FP signal of the competitive binding curve (DCN1 [2]; Concentration (nM) 3333.33, duplicates): 28.3 and 29.7
FP signal of the competitive binding curve (DCN1 [2]; Concentration (nM) 10000, duplicates): 20.5 and 22.6
IC50 (DCN1 [2]; DCN1 50 nM, probe 5 nM, 30 min): 2880 nM
EC50 (MDA-MB-231 cells; Homo sapiens, MDA-MB-231, 72 h, cell line assigned from panel order, read-out: EC50, cell growth inhibition): > 1000 nM
EC50 (HCT116 cells; Homo sapiens, HCT-116, 72 h, cell line assigned from panel order, read-out: EC50, cell growth inhibition): > 1000 nM
SMILES: C=C(CN1CCOCC1)C(=O)NC[C@H](NC(=O)[C@@H](Cc1nc2ccc(C(C)C)cc2s1)NC(=O)CC)C1CCCCC1 [DI-1548DD]
times less potent than DI-1548 and DI-1859, respectively, on cullin 3 neddylation (neddylation of cullin 3): > 300 times
effect on the neddylation of cullin 3 (neddylation of cullin 3; 100–300 nM): no significant effect
accumulation of NRF2 protein (NRF2 protein): no obvious accumulation
viability at 72 h ([3]; conc 10, 72 h): 90.3%
viability at 72 h ([3]; conc 1000, 72 h): 87.9%
cell viability relative to control (U2OS cells; conc 10, 72 h): 109.342 and 93.2895 and 98.1579
cell viability relative to control (U2OS cells; conc 30, 72 h): 118.158 and 95.5263 and 92.6316
cell viability relative to control (U2OS cells; conc 100, 72 h): 108.684 and 93.421 and 101.974
cell viability relative to control (U2OS cells; conc 300, 72 h): 103.684 and 90.921 and 92.2368
cell viability relative to control (U2OS cells; conc 1000, 72 h): 95.1316 and 97.1053 and 98.2895
viability at 72 h ([4]; conc 10, 72 h): 93.6%
viability at 72 h ([4]; conc 30, 72 h): 108%
viability at 72 h ([4]; conc 100, 72 h): 104%
viability at 72 h ([4]; conc 300, 72 h): 104%
cell viability relative to control (MDA-MB-231 cells; conc 10, 72 h): 111.264 and 113.448
cell viability relative to control (MDA-MB-231 cells; conc 30, 72 h): 102.295 and 109.77
cell viability relative to control (MDA-MB-231 cells; conc 100, 72 h): 112.459 and 97.8161
cell viability relative to control (MDA-MB-231 cells; conc 300, 72 h): 97.7869 and 103.793
cell viability relative to control (MDA-MB-231 cells; conc 1000, 72 h): 105.329 and 127.049 and 101.954
viability at 72 h ([5]; conc 3, 72 h): 96.9%
viability at 72 h ([5]; conc 10, 72 h): 107%
viability at 72 h ([5]; conc 100, 72 h): 87.8%
viability at 72 h ([5]; conc 1000, 72 h): 79.7%
cell viability relative to control (HCT116 cells; conc 3, 72 h): 101.869 and 103.551
cell viability relative to control (HCT116 cells; conc 10, 72 h): 94.2056 and 90
cell viability relative to control (HCT116 cells; conc 30, 72 h): 80.7477 and 101.215 and 108.939
cell viability relative to control (HCT116 cells; conc 100, 72 h): 96.6355 and 107.727
cell viability relative to control (HCT116 cells; conc 300, 72 h): 79.5327 and 97.5701 and 109.546
cell viability relative to control (HCT116 cells; conc 1000, 72 h): 96.8224 and 90.3738
viability at 72 h ([6]; conc 10, 72 h): 98.7%
viability at 72 h ([6]; conc 300, 72 h): 88%
EC50 (KYSE70 cells; Homo sapiens, KYSE-70, 72 h, cell line assigned from panel order, read-out: EC50, cell growth inhibition): > 1000 nM
cell viability relative to control (KYSE70 cells; conc 10, 72 h): 101.942 and 101.216
cell viability relative to control (KYSE70 cells; conc 30, 72 h): 111.396 and 109.174 and 90.4505
cell viability relative to control (KYSE70 cells; conc 100, 72 h): 115.736 and 126.65 and 80.7614
cell viability relative to control (KYSE70 cells; conc 300, 72 h): 86.0914 and 84.7716
cell viability relative to control (KYSE70 cells; conc 1000, 72 h): 63.3503 and 88.731 and 70.4569
